Assay results published in US12643871B2, “Aryl formamide compound containing chiral sulfur oxide or salt thereof, preparation method, herbicidal composition and use thereof” (Qingdao Kingagroot Chemical Compound Co., Ltd., priority 2019, dated 2026).

Experiments:
Format in all cases: in vivo
Abutilon theophrasti [1] = assay: Comparison experiment (post-emergence) against racemate / S configuration; settings: 30 g/ha; 3-4 weeks after sowing, 4-5 leaf-stage of weed, 25DAA
Excerpt: (§1) The above growth control rates are fresh weight control rates.
(§2) Experiment on weeding effect in post-emergence stage: monocotyledonous and dicotyledonous weed seeds (Descurainia sophia, Capsella bursa-pastoris, Galium aparine, Stellaria media, Lithospermum arvense, Rorippa indica, Alopecurus aequalis, Beckmannia syzigachne, Sclerochloa dura, Phleum paniculatum, Bromus japonicus, Aegilops tauschii, Phalaris arundinacea, Amaranthus retroflexus, Chenopodiaceae, Commelina communis, Sonchus arvensis, convolvulus arvensis, Cirsium setosum, Solanum nigrum, Acalypha australis, Digitaria sanguinalis, Echinochloa crusgalli, Setaria viridis, Setaria glauca, Leptochloa chinensis, Monochoria vaginalis, Sagittaria trifolia, Scirpus juncoides, Cyperus rotundus, Cyperus iria, Cyperus difformis, Fimbristylis, Portulaca oleracea, Xanthium sibiricum, Pharbitis nil) and major crop seeds (wheat, corn, rice, soybean, cotton, oilseed rape, millet, sorghum, potato, sesame, ricinus) were placed in plastic pots filled with soil, then covered with 0.5-2 cm of soil, allowed to grow in a good greenhouse environment. […] The tested compounds of the present invention were respectively dissolved in acetone, then added with Tween 80 and 1.5 liter/ha of emulsifiable concentrate of methyl oleate as synergist, diluted with a certain amount of water to obtain a solution with a certain concentration, and sprayed with a spray tower onto the plants. […]
(§3) If there is no clear marker, the post-seedling test conditions are the same as above, and the experimental results are shown in Tables 4-7.

Green Setaria viridis = assay: as above; settings: for Results of comparison experiment, Green Setaria viridis (60 g/ha): 25DAA
Excerpt: as §1, §2, §3

Leptochloa chinensis = assay: as above; settings: for Results of comparison experiment, Leptochloa chinensis (60 g/ha) / Results of comparison experiment, Leptochloa chinensis (125 g/ha): 3-4 weeks after sowing, 4-5 leaf-stage of weed; for Results of comparison experiment, Leptochloa chinensis (60 g/ha): 25DAA; for Results of comparison experiment, Leptochloa chinensis (125 g/ha): 25 DAA (Table 5)
Excerpt: as §1, §2, §3

Rice(Longyang 16) = assay: Comparison experiment (post-emergence), crop safety on direct seeding rice; settings: for Results of comparison experiment, Rice(Longyang 16) (250 g/ha) / Results of comparison experiment, Rice(Longyang 16) (500 g/ha): 1.5-2 leaf-stage of direct seeding rice variety Longyang 16, 25 DAA
Excerpt: as §1
(§4) Experiment on weeding effect in post-emergence stage: monocotyledonous and dicotyledonous weed seeds (Descurainia sophia, Capsella bursa-pastoris, Galium aparine, Stellaria media, Lithospermum arvense, Rorippa indica, Alopecurus aequalis, Beckmannia syzigachne, Sclerochloa dura, Phleum paniculatum, Bromus japonicus, Aegilops tauschii, Phalaris arundinacea, Amaranthus retroflexus, Chenopodiaceae, Commelina communis, Sonchus arvensis, convolvulus arvensis, Cirsium setosum, Solanum nigrum, Acalypha australis, Digitaria sanguinalis, Echinochloa crusgalli, Setaria viridis, Setaria glauca, Leptochloa chinensis, Monochoria vaginalis, Sagittaria trifolia, Scirpus juncoides, Cyperus rotundus, Cyperus iria, Cyperus difformis, Fimbristylis, Portulaca oleracea, Xanthium sibiricum, Pharbitis nil) and major crop seeds (wheat, corn, rice, soybean, cotton, oilseed rape, millet, sorghum, potato, sesame, ricinus) were placed in plastic pots filled with soil, then covered with 0.5-2 cm of soil, allowed to grow in a good greenhouse environment. After 2 weeks of sowing, the test plants were treated in the 2 leaf stage. The tested compounds of the present invention were respectively dissolved in acetone, then added with Tween 80 and 1.5 liter/ha of emulsifiable concentrate of methyl oleate as synergist, diluted with a certain amount of water to obtain a solution with a certain concentration, and sprayed with a spray tower onto the plants. After the application, the plants were cultured for 15 days in the greenhouse, and then the experimental results of the weeding were counted. The doses of the used compounds were 500, 250, 125, 60, 30, 15 g/ha, and the averages were obtained by repeating for three times.
as §3
Longyang 16 is an important cultivated variety representative of long-grain fragrant rice in northeast China. Long-grain fragrant rice is sensitive to herbicides and prone to drug damage, especially HPPD herbicides such as mesotrione and benzobicylon. […] It was not consistent with the well-known structure-activity relationship that aryloxyphenoxypropionic acid herbicides and phenoxypropionic acid herbicides in effective form have high activity to weeds and heavy damage to crops, and in ineffective form have almost no activity.

Digitaria sanguinalis [2] = assay: Comparison experiment (post-emergence) against racemate / S configuration; settings: 30 g/ha, 3-4 weeks after sowing, 4-5 leaf-stage of weed, 25DAA; for pest or weed control at 30 g/ha: Digitaria sanguinalis, post-emergence, 600 h
Abutilon theophrasti [3] = assay: Weeding effect in post-emergence stage; settings: 250 g/ha; 2 leaf stage; 15 days after application; fresh weight control rate
Method in brief: (§5)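 Pot-grown weeds sprayed post-emergence at the 2-leaf stage, 2 weeks after sowing, with compound in acetone/Tween 80 plus 1.5 L/ha methyl oleate concentrate at 500–15 g/ha. Fresh-weight growth control scored after 15 days in greenhouse, mean of three replicates, graded levels 0–5 (5: >85%, 0: <5%).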

Amaranthus retroflexus = assay: Weeding effect in post-emergence stage; settings: 250 g/ha; 2 leaf stage; 15 days after application; fresh weight control rate
Method in brief: as §5

Digitaria sanguinalis [4] = assay: Weeding effect in post-emergence stage; settings: 250 g/ha; 2 leaf stage; 15 days after application; fresh weight control rate
Method in brief: as §5

Echinochloa crusgali = assay: Weeding effect in post-emergence stage; settings: 250 g/ha; 2 leaf stage; 15 days after application; fresh weight control rate
Method in brief: as §5

Setaria viridis = assay: Weeding effect in post-emergence stage; settings: 250 g/ha; 2 leaf stage; 15 days after application; fresh weight control rate
Method in brief: as §5

Alopecurus japonicas = assay: Comparison experiment (post-emergence) against racemate / S configuration; settings: Table 6, post-seedling test conditions
Excerpt: as §1, §4, §3

Digitaria sanguinalis [5] = assay: as above; settings: Table 6, post-seedling test conditions; for pest or weed control at 30 g/ha: Digitaria sanguinalis, post-emergence
Excerpt: as §1, §4, §3

[6] = tested on: key weeds such as Digitaria sanguinalis, Leptochloa chinensis; assay: Comparison experiment (post-emergence, Tables 4-7), herbicidal activity on weeds not listed separately; settings: dose of 125, 60, 30, 15 g/ha
Method in brief: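 Weeds sown in soil-filled pots, covered with 0.5-2 cm soil and grown in greenhouse; sprayed at 2-leaf stage (2 weeks after sowing) with compound in acetone/Tween 80 plus 1.5 liter/ha methyl oleate concentrate. Doses 500–15 g/ha; fresh weight control rated after 15 days, mean of three repeats.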

rice and other crops = assay: Comparison experiment (post-emergence, Tables 4-7), crop safety; settings: dose of 125, 60, 30, 15 g/ha
Excerpt: as §1, §4, §3

[7] = 3-4 weeks after sowing, 4-5 leaf-stage of weed, 25 DAA (Table 5)
[8] = 3-4 weeks after sowing, 4-5 leaf-stage of weed
[9] = Table 6, post-seedling test conditions

## CCC[S+]([O-])c1c(C(F)(F)F)ccc(C(=O)Nc2nnc(C)o2)c1F (single isomer, unassigned) [Control Compound A]
Abutilon theophrasti [1]
  Results of comparison experiment, Abutilon theophrasti (30 g/ha): 0%
Green Setaria viridis; [7]
  Results of comparison experiment, Green Setaria viridis (30 g/ha): 0%
Green Setaria viridis; [8]
  Results of comparison experiment, Green Setaria viridis (60 g/ha): 15%
Leptochloa chinensis
  Results of comparison experiment, Leptochloa chinensis (60 g/ha): 0%
  Results of comparison experiment, Leptochloa chinensis (125 g/ha): 10%
Leptochloa chinensis; summary of Table 5
  activity against key weeds such as Leptochloa chinensis, in words: lower activity
Rice(Longyang 16)
  Results of comparison experiment, Rice(Longyang 16) (250 g/ha): 15%
  Results of comparison experiment, Rice(Longyang 16) (500 g/ha): 25%
Rice(Longyang 16); summary of Table 5
  safety to rice (Longyang 16), in words: not safe
Digitaria sanguinalis [2]
  Results of comparison experiment, Digitaria sanguinalis (30 g/ha): 0%

## CCC[S+]([O-])c1c(C(F)(F)F)ccc(C(=O)Nc2nnc(C)o2)c1F (single isomer, unassigned) [Control Compound B]
Abutilon theophrasti [1]
  Results of comparison experiment, Abutilon theophrasti (30 g/ha): 90%
Green Setaria viridis; [7]
  Results of comparison experiment, Green Setaria viridis (30 g/ha): 10%
Green Setaria viridis; [8]
  Results of comparison experiment, Green Setaria viridis (60 g/ha): 90%
Leptochloa chinensis
  Results of comparison experiment, Leptochloa chinensis (60 g/ha): 30%
  Results of comparison experiment, Leptochloa chinensis (125 g/ha): 80%
Rice(Longyang 16)
  Results of comparison experiment, Rice(Longyang 16) (250 g/ha): 5%
  Results of comparison experiment, Rice(Longyang 16) (500 g/ha): 15%
Digitaria sanguinalis [2]
  Results of comparison experiment, Digitaria sanguinalis (30 g/ha): 80%

## Cc1nnc(NC(=O)c2ccc(C(F)(F)F)c([S+](C)[O-])c2F)o1 (single isomer, unassigned) [Control Compound C]
Abutilon theophrasti [1]
  Results of comparison experiment, Abutilon theophrasti (30 g/ha): 60%
Green Setaria viridis; [8]
  Results of comparison experiment, Green Setaria viridis (60 g/ha): 20%
Leptochloa chinensis
  Results of comparison experiment, Leptochloa chinensis (60 g/ha): 0%
Digitaria sanguinalis [2]
  pest or weed control at 30 g/ha: 0%

## Cc1nnc(NC(=O)c2ccc(C(F)(F)F)c([S+](C)[O-])c2F)o1 (single isomer, unassigned) [Control Compound D]
Abutilon theophrasti [1]
  Results of comparison experiment, Abutilon theophrasti (30 g/ha): 50%
Green Setaria viridis; [8]
  Results of comparison experiment, Green Setaria viridis (60 g/ha): 10%
Leptochloa chinensis
  Results of comparison experiment, Leptochloa chinensis (60 g/ha): 0%
Digitaria sanguinalis [2]
  Results of comparison experiment, Digitaria sanguinalis (30 g/ha): 0%

## Cc1nnc(NC(=O)c2ccc(C(F)(F)F)c([S@@+](C)[O-])c2F)o1 [Compound 1]
Abutilon theophrasti [3]
  weeding effect in post-emergence stage, activity level (growth control rate), Abutilon theophrasti: 5 (Level 5: growth control rate is above 85%)
Amaranthus retroflexus
  weeding effect in post-emergence stage, activity level (growth control rate), Amaranthus retroflexus: 5 (Level 5: growth control rate is above 85%)
Digitaria sanguinalis [4]
  weeding effect in post-emergence stage, activity level (growth control rate), Digitaria sanguinalis: 3 (Level 3: growth control rate is greater than or equal to 40% and less than 60%)
Echinochloa crusgali
  weeding effect in post-emergence stage, activity level (growth control rate), Echinochloa crusgali: 5 (Level 5: growth control rate is above 85%)
Setaria viridis
  weeding effect in post-emergence stage, activity level (growth control rate), Setaria viridis: 3 (Level 3: growth control rate is greater than or equal to 40% and less than 60%)
Abutilon theophrasti [1]
  Results of comparison experiment, Abutilon theophrasti (30 g/ha): 100%
Green Setaria viridis; [8]
  Results of comparison experiment, Green Setaria viridis (60 g/ha): 80%
Leptochloa chinensis
  Results of comparison experiment, Leptochloa chinensis (60 g/ha): 70%
Digitaria sanguinalis [2]
  Results of comparison experiment, Digitaria sanguinalis (30 g/ha): 90%

## CSc1c(C(=O)Nc2nnc(C)o2)ccc(C(F)(F)F)c1[S@@+](C)[O-] [Compound 547]
Alopecurus japonicas
  Results of comparison experiment, Alopecurus japonicas (120 g/ha): 40%
Digitaria sanguinalis [5]
  Results of comparison experiment, Digitaria sanguinalis (30 g/ha): 90%
Green Setaria viridis; [9]
  Results of comparison experiment, Green Setaria viridis (30 g/ha): 80%

## CCC[S@@+]([O-])c1c(C(F)F)ccc(C(=O)Nc2nnc(C)o2)c1F [Compound 637]
Abutilon theophrasti [3]
  weeding effect in post-emergence stage, activity level (growth control rate), Abutilon theophrasti: 5 (Level 5: growth control rate is above 85%)
Amaranthus retroflexus
  weeding effect in post-emergence stage, activity level (growth control rate), Amaranthus retroflexus: 5 (Level 5: growth control rate is above 85%)
Digitaria sanguinalis [4]
  weeding effect in post-emergence stage, activity level (growth control rate), Digitaria sanguinalis: 5 (Level 5: growth control rate is above 85%)
Echinochloa crusgali
  weeding effect in post-emergence stage, activity level (growth control rate), Echinochloa crusgali: 5 (Level 5: growth control rate is above 85%)
Setaria viridis
  weeding effect in post-emergence stage, activity level (growth control rate), Setaria viridis: 5 (Level 5: growth control rate is above 85%)
Abutilon theophrasti [1]
  Results of comparison experiment, Abutilon theophrasti (30 g/ha): 100%
Green Setaria viridis; [8]
  Results of comparison experiment, Green Setaria viridis (60 g/ha): 100%
Leptochloa chinensis
  Results of comparison experiment, Leptochloa chinensis (60 g/ha): 90%
[6]
  activity to key weeds such as Digitaria sanguinalis, Leptochloa chinensis compared with the corresponding racemate or S configuration: better activity
Rice and other crops
  safety to rice and other crops compared with the corresponding racemate or S configuration: higher safety
Digitaria sanguinalis [2]
  pest or weed control at 30 g/ha: 100%

## CC[S+]([O-])c1c(C(F)(F)F)ccc(C(=O)Nc2nnc(C)o2)c1SC (centres unmarked) [Control Compound B′]
Alopecurus japonicas
  Results of comparison experiment, Alopecurus japonicas (120 g/ha): 0%
Digitaria sanguinalis [5]
  pest or weed control at 30 g/ha: 30%
Green Setaria viridis; [9]
  Results of comparison experiment, Green Setaria viridis (30 g/ha): 30%

## CCS(=O)(=O)c1c(C(F)(F)F)ccc(C(=O)Nc2nnc(C)o2)c1SC [Control Compound C′]
Alopecurus japonicas
  Results of comparison experiment, Alopecurus japonicas (120 g/ha): 20%
Digitaria sanguinalis [5]
  pest or weed control at 30 g/ha: 10%
Green Setaria viridis; [9]
  Results of comparison experiment, Green Setaria viridis (30 g/ha): 80%

## CCSc1c(C(F)(F)F)ccc(C(=O)Nc2nnc(C)o2)c1SC [Control Compound D′]
Alopecurus japonicas
  Results of comparison experiment, Alopecurus japonicas (120 g/ha): 0%
Digitaria sanguinalis [5]
  pest or weed control at 30 g/ha: 20%
Green Setaria viridis; [9]
  Results of comparison experiment, Green Setaria viridis (30 g/ha): 20%

## Cc1nnc(NC(=O)c2ccc(C(F)F)c([S+](C)[O-])c2F)o1 (centres unmarked) [Control Compound E]
Abutilon theophrasti [1]
  Results of comparison experiment, Abutilon theophrasti (30 g/ha): 60%
Green Setaria viridis; [8]
  Results of comparison experiment, Green Setaria viridis (60 g/ha): 25%
Leptochloa chinensis
  Results of comparison experiment, Leptochloa chinensis (60 g/ha): 10%
Digitaria sanguinalis [2]
  pest or weed control at 30 g/ha: 5%

## CSc1c(C(=O)Nc2nnc(C)o2)ccc(C(F)(F)F)c1[S+](C)[O-] (centres unmarked) [Control Compound E′]
Alopecurus japonicas
  Results of comparison experiment, Alopecurus japonicas (120 g/ha): 15%
Digitaria sanguinalis [5]
  Results of comparison experiment, Digitaria sanguinalis (30 g/ha): 40%
Green Setaria viridis; [9]
  Results of comparison experiment, Green Setaria viridis (30 g/ha): 40%

## CSc1c(C(=O)Nc2nnc(C)o2)ccc(C(F)(F)F)c1[S+](C)[O-] (centres unmarked) [Control Compound F′]
Alopecurus japonicas
  Results of comparison experiment, Alopecurus japonicas (120 g/ha): 0%
Digitaria sanguinalis [5]
  Results of comparison experiment, Digitaria sanguinalis (30 g/ha): 0%
Green Setaria viridis; [9]
  Results of comparison experiment, Green Setaria viridis (30 g/ha): 5%
